Results as given in patent US4086417A, “Cytidine nucleotide derivatives” (Asahi Kasei Kogyo Kabushiki Kaisha, priority 1974, dated 1978).
Converted amounts (≈) assume the structure as drawn. Structures can show the parent of a compound that is named as a salt. Where two headings read alike, the source gives them in different places.

How the values were obtained:
[1] = Solubility test: solubility in water; type: physicochemical
From the text: In the aforesaid examples, the products were obtained as white solids.
In Table 1, -Ara-C means "-1-β-D-arabinofuranosylcytosine" and -5'-Pna and -5'-PNa2 mean "-1-β-D-arabinofuranosylcytosine-5'-phosphate monosodium salt" and "-1-β-D-arabinofuranosylcytosine-5'-phosphate disodium salt," respectively.

leukemia L-1210 = experiment: Antitumour activity in mice inoculated intraperitoneally with leukemia L-1210 (survival, T/C); type: in vivo, CDF-1 male mice; details: Mus musculus, L1210, ip, directly after injection of L-1210, after 2 days and after 6 days; for response vs control in vivo at 100 mg/kg: 100 mg/kg i.p.; for response vs control in vivo at 200 mg/kg: 200 mg/kg i.p.; for response vs control in vivo at 400 mg/kg: 400 mg/kg i.p.
Description: The antitumour activity for mice of the test material was evaluated by means of survival rate comparison, T/C (%), that is, 100 times the mean survival period of the groups injected with the test material divided by the mean survival period of the comparison groups which were not injected with the test material.
Further, for comparison, the following materials were also subjected to the same biological test: […]

| Solubility in water [1] | SMILES | response vs control in vivo at 100 mg/kg (leukemia L-1210) | response vs control in vivo at 200 mg/kg (leukemia L-1210) | response vs control in vivo at 400 mg/kg (leukemia L-1210) | also measured |
| --- | --- | --- | --- | --- | --- |
| > 10000 µg/mL | O=C(Nc1ccn([C@@H]2O[C@H](COP(=O)(O)O)[C@@H](O)[C@@H]2O)c(=O)n1)C12CC3CC(CC(C3)C1)C2 [N^4 -Adamantoyl-5'-PNa2] | – | – | – | – |
| 2000 µg/mL | O=C(Nc1ccn([C@@H]2O[C@H](COP(=O)(O)O)[C@@H](O)[C@@H]2O)c(=O)n1)C12CC3CC(CC(C3)C1)C2 [N^4 -Adamantoyl-5'-PNa, N^4-adamantoyl-1-β-D-arabinofuranosylcytosine-5'-phosphate monosodium] | – | – | – | – |
| – | O=C(Nc1ccn([C@@H]2O[C@H](CO)[C@@H](O)[C@@H]2O)c(=O)n1)C12CC3CC(CC(C3)C1)C2 [N^4 -Adamantoyl-Ara-C] | – | – | – | solubility [1]: 10 µg/mL (≈ 24.7 µM) |
| > 50000 µg/mL | CCCCCCCCCCCCCCCCC(=O)Nc1ccn([C@@H]2O[C@H](COP(=O)(O)O)[C@@H](O)[C@@H]2O)c(=O)n1 [N^4 -Margaroyl-5'-PNa2] | – | – | – | – |
| > 10000 µg/mL | CCCCCCCCCCCCCCCCC(=O)Nc1ccn([C@@H]2O[C@H](COP(=O)(O)O)[C@@H](O)[C@@H]2O)c(=O)n1 [N^4 -Margaroyl-5'-PNa, N^4-margaroyl-1-β-D-arabinofuranosylcytosine-5'-phosphate monosodium] | > 395% | > 382% | 101% | – |
| – | CCCCCCCCCCCCCCCCC(=O)Nc1ccn([C@@H]2O[C@H](CO)[C@@H](O)[C@@H]2O)c(=O)n1 [N^4 -Margaroyl-Ara-C] | > 397% | 188% | 99% | solubility [1]: < 10 µg/mL |
| > 5000 µg/mL | CCCCCCCCCCCCCCCCCCCCCCCCCCCC(=O)Nc1ccn([C@@H]2O[C@H](COP(=O)(O)O)[C@@H](O)[C@@H]2O)c(=O)n1 [N^4 -Montanoyl-5'-PNa2] | – | – | – | – |
| 1000 µg/mL | CCCCCCCCCCCCCCCCCCCCCCCCCCCC(=O)Nc1ccn([C@@H]2O[C@H](COP(=O)(O)O)[C@@H](O)[C@@H]2O)c(=O)n1 [N^4 -Montanoyl-5'-PNa, N^4-montanoyl-1-β-D-arabinofuranosylcytosine-5'-phosphate monosodium] | – | – | – | – |
| – | CCCCCCCCCCCCCCCCCCCCCCCCCCCC(=O)Nc1ccn([C@@H]2O[C@H](CO)[C@@H](O)[C@@H]2O)c(=O)n1 [N^4 -Montanoyl-Ara-C] | – | – | – | solubility [1]: < 10 µg/mL |
| > 250000 µg/mL | CCCCCCCC/C=C\CCCCCCCC(=O)Nc1ccn([C@@H]2O[C@H](COP(=O)(O)O)[C@@H](O)[C@@H]2O)c(=O)n1 [N^4 -Oleoyl-5'-PNa2] | – | – | – | – |
| > 50000 µg/mL | CCCCCCCC/C=C\CCCCCCCC(=O)Nc1ccn([C@@H]2O[C@H](COP(=O)(O)O)[C@@H](O)[C@@H]2O)c(=O)n1 [N^4 -Oleoyl-5'-PNa, N^4-oleoyl-1-β-D-arabinofuranosylcytosine-5'-phosphate monosodium] | 270% | 156% | 103% | – |
| – | CCCCCCCC/C=C\CCCCCCCC(=O)Nc1ccn([C@@H]2O[C@H](CO)[C@@H](O)[C@@H]2O)c(=O)n1 [N^4 -Oleoyl-Ara-C] | 261% | 135% | 94% | solubility [1]: 50 µg/mL (≈ 98.5 µM) |
| > 150000 µg/mL | CCCCCCCCCCCCCCCC(=O)Nc1ccn([C@@H]2O[C@H](COP(=O)(O)O)[C@@H](O)[C@@H]2O)c(=O)n1 [N^4 -Palmitoyl-5'-PNa2] | – | – | – | – |
| – | CCCCCCCCCCCCCCCCCC(=O)Nc1ccn([C@@H]2O[C@H](COP(=O)(O)O)[C@@H](O)[C@@H]2O)c(=O)n1 [N^4 -Stearoyl-5'-PNa2, N^4-stearoyl-1-β-D-arabinofuranosylcytosine-5'-phosphate disodium salt] | – | – | – | Solubility in water ([1]; disodium salt): > 50000 µg/mL |
| – | CCCCCCCCCCCCCCCCCC(=O)Nc1ccn([C@@H]2O[C@H](CO)[C@@H](OP(=O)(O)O)[C@@H]2O)c(=O)n1 [N^4-stearoyl-Ara-C-3'-PNa] | 286% | 219% | 112% | – |
